The numbers were not newly measured in patent US20250222110A1, “METHODS AND COMPOSITIONS FOR TREATMENT OF AGE-RELATED CATARACTS” (LIVIONEX, Inc., priority 2024, published 2025), which cites them from elsewhere.

For the series the following is noted: 79° F.

`CS(C)(=O)=O` [MSM, methylsulfonylmethane]: the water solubility was 34 % w/v.
